Results taken from US20060069132A1, “Azolecarboxamide herbicides” (priority 2004, published 2006).
Where two headings read alike, the source gives them in different places.

Columns and labels:
[1] = system: giant foxtail; assay: Test A pre-/postemergence herbicide test; assay type: in vivo, Setaria faberi
In short: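 Greenhouse injury scoring (0–100, complete control = 100) at approximately ten days follows simultaneous pre- and postemergence application. Soil received a directed spray after seeding; seedlings of 2–10 cm at the one- to two-leaf stage were sprayed to runoff.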

[2] = system: lambsquarters; assay: Test B pre-/postemergence herbicide test; assay type: in vivo, Chenopodium album; details: for pest or weed control at 125 g/ha / pest or weed control at 500 g/ha: Chenopodium album, 336 h
In short: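 Response was scored visually 13 to 15 days after treatment against untreated greenhouse controls, 0 meaning no effect and 100 complete control. Formulations (solvent mixture plus surfactant) went onto soil after planting, onto foliage of 1- to 4-leaf plants, and onto 2-leaf plants in a flooded paddy set including rice and barnyardgrass.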

[3] = system: barnyardgrass; assay: Test B flooded paddy test; assay type: in vivo, Echinochloa crus-galli; details: 1000 g ai/ha, scale 0 to 100 (0 no effect, 100 complete control); for pest or weed control at 1000 g/ha: Echinochloa crus-galli, 336 h, read-out: Barnyardgrass plant response rating
In short: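 Scale 0–100: zero equals no visible effect, 100 complete control, judged by eye relative to controls. Timing: 13 to 15 days in greenhouse post-treatment. Growth stage at spraying: two leaves (paddy) or one to four leaves, 2–18 cm (postemergence).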

[4] = system: rice; assay: Test C flooded paddy test; assay type: in vivo, Oryza sativa; details: for Plant response rating, Rice: visual rating after 12 to 14 days
In short: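 Injury scored visually against controls on a 0 (no effect) to 100 (complete control) scale, 12 to 14 days after treatment in greenhouse. Flooded paddy plants treated at 2-leaf stage; postemergence plants at 1- to 4-leaf stage, 2 to 18 cm tall.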

[5] = Postemergence, 500 g ai/ha, 0 to 100 scale, 0 no effect, 100 complete control
[6] = Postemergence, 2000 g ai/ha, 0 to 100 scale, 0 no effect, 100 complete control
[7] = Preemergence, 500 g ai/ha, visual rating, 0 to 100 scale (0 no effect, 100 complete control)
[8] = preemergence, 125 g ai/ha, 0 to 100 scale, 0 is no effect, 100 is complete control
[9] = 62 g ai/ha, scale 0 to 100 (0 no effect, 100 complete control)
[10] = 125 g ai/ha, scale of 0 to 100, 0 is no effect, 100 is complete control
[11] = 500 g ai/ha, scale 0 to 100 (0 no effect, 100 complete control)
[12] = Preemergence, 2000 g ai/ha, visual rating, 0 to 100 scale (0 no effect, 100 complete control)
[13] = preemergence, 500 g ai/ha, visual injury, 0 to 100 scale (0 no effect, 100 complete control)
[14] = 125 g ai/ha, 0 = no effect, 100 = complete control, preemergence
[15] = 125 g ai/ha, visual rating, scale 0 (no effect) to 100 (complete control), postemergence
[16] = 500 g ai/ha, visual rating, 0 = no effect, 100 = complete control, preemergence
[17] = postemergence, 500 g ai/ha, scale 0 to 100, 0 is no effect, 100 is complete control
[18] = 125 g ai/ha, scale 0 to 100 (0 no effect, 100 complete control)
[19] = 250 g ai/ha, scale of 0 to 100, 0 is no effect, 100 is complete control
[20] = 500 g ai/ha, visual rating 0-100, 0 no effect, 100 complete control, preemergence
[21] = postemergence, 125 g ai/ha, visual rating, scale 0 (no effect) to 100 (complete control)
[22] = postemergence, 500 g ai/ha, visual rating, scale 0 (no effect) to 100 (complete control)
[23] = 125 g ai/ha, 0 is no effect, 100 is complete control, preemergence
[24] = post-emergence, postemergence, 500 g ai/ha, scale 0 to 100, 0 is no effect, 100 is complete control, read-out: Lambsquarters plant response rating

SMILES	Plant response rating, Foxtail, Giant [1, 6]	Plant response rating, Lambsquarters [2, 8]	Barnyardgrass plant response rating ([3]; visual rating, 13 to 15 days)	Rice plant response rating [4, 9]	Plant response rating, Rice [4, 11]	Foxtail, Giant plant response rating [1, 5]	Foxtail, Giant plant response rating [1, 12]	Foxtail, Giant plant response rating [1, 13]	Lambsquarters plant response rating (0 to 100 scale) [2, 14]	Plant response rating, Lambsquarters [2, 16]	Lambsquarters plant response rating [2, 17]	Barnyardgrass plant response rating [3]	Rice plant response rating ([4]; 62 g ai/ha, scale 0 to 100)	Rice plant response rating [4, 18]	Rice plant response rating [4, 19]	Plant response rating, Lambsquarters [2, 20]	Lambsquarters plant response rating [2, 21]	Lambsquarters plant response rating [2, 22]	also measured
CCn1nc(C(C)(C)C)cc1C(=O)Nc1cccc(C(=O)NCCF)c1 [Compound 45]	95	100	80	30	65														Plant response rating, Foxtail, Giant [1, 5]: 90; Foxtail, Giant plant response rating [1, 7]: 75; Foxtail, Giant plant response rating ([1]; Preemergence, 2000 g ai/ha, 0 to 100 scale, 0 no effect, 100 complete control): 100; Lambsquarters plant response rating ([2]; Postemergence, 125 g ai/ha, scale 0 (no effect) to 100 (complete control)): 80; Plant response rating, Lambsquarters ([2]; Postemergence, 500 g ai/ha, visual rating after 13 to 15 days, scale 0 (no effect) to 100 (complete control)): 90; Lambsquarters plant response rating ([2]; Preemergence, 500 g ai/ha, scale 0 to 100): 100; Rice plant response rating [4, 10]: 30; Plant response rating, Rice ([4]; 250 g ai/ha, scale 0 to 100 (0 no effect, 100 complete control)): 35
CCn1nc(C(C)(C)C)cc1C(=O)Nc1cncc(C(=O)N2CC=CC2)n1 [Compound 290]	70				45	15	90	50	100	100	20	70	0	0	15				Lambsquarters plant response rating [2, 15]: 10
CCn1nc(C(C)(C)C)cc1C(=O)Nc1cccc(OCCCF)c1 [Compound 138]	35	0	10	5	40	20	90							5	5	100	80	90	Foxtail, Giant plant response rating [1, 7]: 30
C#CCNC(=O)c1cc(NC(=O)c2cc(C(C)(C)C)nn2CC)ccn1 [Compound 283]	25				0	10	50	10	0	100	30	20	0	0	0		0		
CCn1nc(C(C)(C)C)cc1C(=O)Nc1cccc(C(C)=O)c1 [Compound 122]	80	80	60	0	50	80	85								10	100	0	0	Foxtail, Giant plant response rating [1, 7]: 65; Rice plant response rating [4, 10]: 10
CCc1nc(C(C)(C)C)sc1C(=O)Nc1cccc(C(=O)NCCF)c1 [Compound 209]	25		60	0	65	15	90	50	60					45	45	100	40	40	
CCn1nc(C(C)(C)C)cc1C(=O)Nc1nc(C(=O)N2CC=CC2)ccc1F [Compound 281]	25				50	0	75	60	90	100	30	70	0	0	15		20		
CCOC(=O)c1cccc(NC(=O)c2nn(C(C)(C)C)nc2CC)c1 [Compound 360, ethyl 3-[[[2-(1,1-dimethylethyl)-5-ethyl-2H-1,2,3-triazol-4-yl]carbonyl]amino]benzoate]																			Plant response rating (0 to 100 scale), Lambsquarters [2, 23]: 0; pest or weed control at 125 g/ha ([2]; post-emergence, 125 g ai/ha, visual rating, scale 0 (no effect) to 100 (complete control), read-out: Lambsquarters plant response rating): 0%; pest or weed control at 500 g/ha [2, 24]: 20%; pest or weed control at 500 g/ha ([2]; pre-emergence, 500 g ai/ha, visual rating, 0 = no effect, 100 = complete control, read-out: Plant response rating, Lambsquarters): 40%; pest or weed control at 1000 g/ha [3]: 40%
C#CCNC(=O)c1cccc(NC(=O)c2sc(C(C)(C)C)nc2CC)c1 [Compound 319]	40				70	0	80	55		100	60	10	0	35	35				Plant response rating (0 to 100 scale), Lambsquarters [2, 23]: 20; Lambsquarters plant response rating [2, 15]: 50
CCn1nc(C(C)(C)C)cc1C(=O)Nc1cccc(OS(=O)(=O)CC)c1 [Compound 408]					55							70	25	35	45				Plant response rating (0 to 100 scale), Lambsquarters [2, 23]: 100; Lambsquarters plant response rating ([2]; Postemergence, 500 g ai/ha, scale 0 (no effect) to 100 (complete control)): 100; Lambsquarters plant response rating ([2]; postemergence, 125 g ai/ha, scale 0 to 100): 90
CCn1nc(C(C)(C)C)cc1C(=O)Nc1cc(C(=O)NCC2CC2)ccn1 [Compound 155]		100	70	0	35									0	0	100	70	90	
CCN(CC)C(=O)c1cncc(NC(=O)c2cc(C(C)(C)C)nn2CC)c1 [Compound 261, 5-[[[3-(1,1-dimethylethyl)-1-ethyl-1H-pyrazol-5-yl]carbonyl]amino]-N,N-diethyl-3-pyridinecarboxamide]																			pest or weed control at 125 g/ha ([2]; post-emergence, postemergence, 125 g ai/ha, visual rating, scale 0 (no effect) to 100 (complete control), read-out: Lambsquarters plant response rating): 10%; pest or weed control at 500 g/ha [2, 24]: 60%; pest or weed control at 1000 g/ha [3]: 0%
